Reference: ChEMBL document CHEMBL4715874, “In Vivo Screening of Xanthones from Garcinia oligantha Identified Oliganthin H as a Novel Natural Inhibitor of Convulsions” (J Nat Prod, 2020)
Active and inactive are the calls of the source. No cut-off for these calls is given here.

Tests used:
[1] = Effect of GLSA mRNA expression in AB zebra fish larvae at 25 uM after 6 hrs by qRT-PCR analysis (reference value: 1 +/- 0.18%); format: ADME, Danio rerio; details: zebrafish
Danio rerio [2] = species on record: Danio rerio; assay: Anticonvulsant activity in AB zebra fish larvae assessed as reduction in PTZ-induced convulsant behavior by measuring lowest observed effect concentration pretreated for 6 hrs followed by PTZ-stimulation and measured every 5 mins for 1 hr; format: functional; details: time 7 hrs
Danio rerio [3] = species on record: Danio rerio; assay: Anticonvulsant activity in AB zebra fish larvae assessed as PTZ-induced GLULA mRNA expression at 25 uM pretreated for 6 hrs followed by PTZ-stimulation and measured after 30 mins by qRT-PCR analysis (reference value: 5.44 +/- 0.55%); format: functional; details: time 6.5 hrs
[4] = Effect of pvalb5 mRNA expression in AB zebra fish larvae at 25 uM after 6 hrs by qRT-PCR analysis (reference value: 1 +/- 0.07%); format: ADME, Danio rerio; details: zebrafish
[5] = Effect of gat1 mRNA expression in AB zebra fish larvae at 25 uM after 6 hrs by qRT-PCR analysis (reference value: 1.03 +/- 0.38%); format: ADME, Danio rerio; details: zebrafish
[6] = Effect of PYYA mRNA expression in AB zebra fish larvae at 25 uM after 6 hrs by qRT-PCR analysis (reference value: 1 +/- 0.13%); format: ADME, Danio rerio; details: zebrafish
Danio rerio [7] = species on record: Danio rerio; assay: Anticonvulsant activity in AB zebra fish larvae assessed as PTZ-induced number of burst at 25 uM pretreated for 6 hrs followed by PTZ-stimulation and measured every 5 mins for 30 mins (reference value: 9.25 +/- 6.36); format: functional; details: time 6.5 hrs
[8] = Effect of gabra1 mRNA expression in AB zebra fish larvae at 25 uM after 6 hrs by qRT-PCR analysis (reference value: 1 +/- 0.11%); format: ADME, Danio rerio; details: zebrafish
[9] = Effect of GLULA mRNA expression in AB zebra fish larvae at 25 uM after 6 hrs by qRT-PCR analysis (reference value: 1.02 +/- 0.29%); format: ADME, Danio rerio; details: zebrafish
Danio rerio [10] = species on record: Danio rerio; assay: Anticonvulsant activity in AB zebra fish larvae assessed as PTZ-induced velocity at 12.5 uM pretreated for 6 hrs followed by PTZ-stimulation and measured every 5 mins for 30 mins (reference value: 0.63 +/- 0.23 mm/s); format: functional; details: time 6.5 hrs
Danio rerio [11] = species on record: Danio rerio; assay: Anticonvulsant activity in AB zebra fish larvae assessed as PTZ-induced glud1a mRNA expression at 25 uM pretreated for 6 hrs followed by PTZ-stimulation and measured after 30 mins by qRT-PCR analysis (reference value: 1.67 +/- 0.4%); format: functional; details: time 6.5 hrs
[12] = Effect of PRKACAB mRNA expression in AB zebra fish larvae at 25 uM after 6 hrs by qRT-PCR analysis (reference value: 1 +/- 0.03%); format: ADME, Danio rerio; details: zebrafish
Danio rerio [13] = species on record: Danio rerio; assay: Anticonvulsant activity in AB zebra fish larvae assessed as PTZ-induced BDNF mRNA expression at 25 uM pretreated for 6 hrs followed by PTZ-stimulation and measured after 30 mins by qRT-PCR analysis (reference value: 11.41 +/- 1.09%); format: functional; details: time 6.5 hrs
Danio rerio [14] = species on record: Danio rerio; assay: Anticonvulsant activity in AB zebra fish larvae assessed as PTZ-induced seizure activity at 6.2 uM pretreated for 6 hrs followed by PTZ-stimulation and measured every 5 mins for 30 mins (reference value: 14.13 +/- 0.004 mm); format: functional; details: time 6.5 hrs
[15] = Neurotoxicity in AB zebra fish larvae assessed as increase in total swimming distance at > 12.5 uM after 6 hrs; format: toxicity, Danio rerio; details: zebrafish
Danio rerio [16] = species on record: Danio rerio; assay: Anticonvulsant activity in AB zebra fish larvae assessed as PTZ-induced gad1 mRNA expression at 25 uM pretreated for 6 hrs followed by PTZ-stimulation and measured after 30 mins by qRT-PCR analysis (reference value: 5.45 +/- 1.77%); format: functional; details: time 6.5 hrs
[17] = Effect of c-fos mRNA expression in AB zebra fish larvae at 25 uM after 6 hrs by qRT-PCR analysis (reference value: 1.06 +/- 0.52%); format: ADME, Danio rerio; details: zebrafish
Danio rerio [18] = species on record: Danio rerio; assay: Anticonvulsant activity in AB zebra fish larvae assessed as PTZ-induced c-fos mRNA expression at 25 uM pretreated for 6 hrs followed by PTZ-stimulation and measured after 30 mins by qRT-PCR analysis (reference value: 8.91 +/- 0.54%); format: functional; details: time 6.5 hrs
Danio rerio [19] = species on record: Danio rerio; assay: Anticonvulsant activity in AB zebra fish larvae assessed as PTZ-induced velocity at 25 uM pretreated for 6 hrs followed by PTZ-stimulation and measured every 5 mins for 30 mins (reference value: 0.63 +/- 0.23 mm/s); format: functional; details: time 6.5 hrs
Danio rerio [20] = species on record: Danio rerio; assay: Anticonvulsant activity in AB zebra fish larvae assessed as PTZ-induced PRKACB mRNA expression at 25 uM pretreated for 6 hrs followed by PTZ-stimulation and measured after 30 mins by qRT-PCR analysis (reference value: 1.49 +/- 0.69%); format: functional; details: time 6.5 hrs
Danio rerio [21] = species on record: Danio rerio; assay: Anticonvulsant activity in AB zebra fish larvae assessed as PTZ-induced GLSA mRNA expression at 25 uM pretreated for 6 hrs followed by PTZ-stimulation and measured after 30 mins by qRT-PCR analysis (reference value: 3.4 +/- 0.5%); format: functional; details: time 6.5 hrs
Danio rerio [22] = species on record: Danio rerio; assay: Anticonvulsant activity in AB zebra fish larvae assessed as PTZ-induced PYYA mRNA expression at 25 uM pretreated for 6 hrs followed by PTZ-stimulation and measured after 30 mins by qRT-PCR analysis (reference value: 18.53 +/- 4.32%); format: functional; details: time 6.5 hrs
Danio rerio [23] = species on record: Danio rerio; assay: Anticonvulsant activity in AB zebra fish larvae assessed as PTZ-induced number of burst at 6.2 uM pretreated for 6 hrs followed by PTZ-stimulation and measured every 5 mins for 30 mins (reference value: 9.25 +/- 6.36); format: functional; details: time 6.5 hrs
Danio rerio [24] = species on record: Danio rerio; assay: Anticonvulsant activity in AB zebra fish larvae assessed as reduction in PTZ-induced convulsant behavior by measuring swimming distance at 6.2 uM pretreated for 6 hrs followed by PTZ-stimulation and measured every 5 mins for 1 hr; format: functional, organism-based; details: time 7.0 hrs
Danio rerio [25] = species on record: Danio rerio; assay: Anticonvulsant activity in AB zebra fish larvae assessed as PTZ-induced seizure activity at 25 uM pretreated for 6 hrs followed by PTZ-stimulation and measured every 5 mins for 30 mins (reference value: 14.13 +/- 0.004 mm); format: functional; details: time 6.5 hrs

Compound: CC(C)=CCC/C(C)=C/C[C@@]1(CC=C(C)C)C(=O)C(O)=C(O)c2oc3c4c(cc(O)c3c(=O)c21)OC(C)(C)C=C4
- Activity [1]: 0.78%
- Activity (Danio rerio [2]): 12.5 µM
- Activity (Danio rerio [3]): 1.61%
- Activity [4]: 0.86%
- Activity [5]: 0.87%
- Activity [6]: 2.27%
- Activity (Danio rerio [7]): 142.3
- Activity [8]: 1.77%
- Activity [9]: 0.76%
- Activity (Danio rerio [10]): 0.86 millimeter/sec
- Activity (Danio rerio [11]): 1.24%
- Activity [12]: 0.9%
- Activity (Danio rerio [13]): 1.32%
- Activity (Danio rerio [14]): 1210 mm
- Activity [15]: Toxic
- Activity (Danio rerio [16]): 1.08%
- Activity [17]: 1.67%
- Activity (Danio rerio [18]): 3.31%
- Activity (Danio rerio [19]): 0.8 millimeter/sec
- Activity (Danio rerio [20]): 1.21%
- Activity (Danio rerio [21]): 0.92%
- Activity (Danio rerio [22]): 1.09%
- Activity (Danio rerio [23]): 287.3
- Activity (Danio rerio [24]): inactive
- Activity (Danio rerio [25]): 557.9 mm
